Patent US11597724B2, “Herbicidally active 3-phenylisoxazoline-5-carboxamides of tetrahydro and dihydrofuran carboxylic acids and esters” (Bayer Aktiengesellschaft, priority 2017, dated 2023)

Assays:
Assay type in all cases: in vivo
[1] = Pre-emergence treatment, summary over harmful plants; settings: 504 h, application rate of 0.08 kg of active substance or less per hectare, read-out: herbicidal action, pre-emergence treatment (very good activity)
Description: 1. Pre-Emergence Herbicidal Action and Crop Plant Compatibility
(§1) Seeds of monocotyledonous and dicotyledonous weed plants and crop plants are placed in plastic or wood fiber pots and covered with soil. The compounds of the invention, formulated in the form of wettable powders (WP) or as emulsion concentrates (EC), are then applied onto the surface of the covering soil as aqueous suspension or emulsion with addition of 0.5% additive at a water application rate of 600 l/ha (converted). After the treatment, the pots are placed in a greenhouse and kept under good growth conditions for the trial plants. After about 3 weeks, the effect of the preparations is scored visually in comparison with untreated controls as percentages. For example, 100% activity=the plants have died, 0% activity=like control plants.
As shown by the results, compounds according to the invention such as, for example, the compounds No. I-21 and other compounds from the tables (for example I-10, I-26, I-09, I-30, I-28, I-29, I-27, I-01, I-06, I-34, I-19, I-11, I-36, I-37, I-38, I-41, I-42, I-43, I-44, I-46, I-49) have, when used for pre-emergence treatment, very good activity (80% to 100% herbicidal action) against harmful plants such as Abutilon theophrasti, Alopecurus myosuroides, Amaranthus retroflexus, Avena fatua, Echinochloa crus-galli, Hordeum murinum, Lolium rigidum, Pharbitis purpurea, Polygonum convolvulus, Setaria viridis, Stellaria media, Veronica persica and Viola tricolor at an application rate of 0.08 kg of active substance or less per hectare.

Abutilon theophrasti = experiment: Pre-emergence herbicidal activity against ABUTH; settings: dosage 80 g/ha
Description: as §1, with “1. Pre-Emergence Herbicidal Action and Crop Plant Compatibility Seeds of” for “Seeds of”, “control plants. ABUTH: Abutilon theophrasti ALOMY: Alopecurus myosuroides” for “control plants.”

Echinochloa crus-galli = experiment: Pre-emergence herbicidal activity against ECHCG; settings: dosage 80 g/ha, scored visually after about 3 weeks vs untreated controls (100% = plants have died, 0% = like control plants); for pest or weed control at 80 g/ha: Echinochloa crus-galli, 504 h
Description: as §1, with “1. Pre-Emergence Herbicidal Action and Crop Plant Compatibility Seeds of” for “Seeds of”, “control plants. ECHCG: Echinochloa crus-galli HORMU: Hordeum murinum” for “control plants.”

Pharbitis purpurea = experiment: Pre-emergence herbicidal activity against PHBPU; settings: dosage 80 g/ha; for pest or weed control at 80 g/ha: Ipomoea purpurea, 504 h
Description: as §1, with “1. Pre-Emergence Herbicidal Action and Crop Plant Compatibility Seeds of” for “Seeds of”, “control plants. LOLRI: Lolium rigidum PHBPU: Pharbitis purpurea” for “control plants.”

Hordeum murinum = experiment: Pre-emergence herbicidal activity against HORMU; settings: dosage 80 g/ha; for pest or weed control at 80 g/ha: Hordeum murinum, 504 h
Description: as §1, with “1. Pre-Emergence Herbicidal Action and Crop Plant Compatibility Seeds of” for “Seeds of”, “control plants. ECHCG: Echinochloa crus-galli HORMU: Hordeum murinum” for “control plants.”

Lolium rigidum = experiment: Pre-emergence herbicidal activity against LOLRI; settings: dosage 80 g/ha; for pest or weed control at 80 g/ha: Lolium rigidum, 504 h
Description: as §1, with “1. Pre-Emergence Herbicidal Action and Crop Plant Compatibility Seeds of” for “Seeds of”, “control plants. LOLRI: Lolium rigidum PHBPU: Pharbitis purpurea” for “control plants.”

Viola tricolor = experiment: Pre-emergence herbicidal activity against VIOTR; settings: dosage 80 g/ha
Description: as §1, with “1. Pre-Emergence Herbicidal Action and Crop Plant Compatibility Seeds of” for “Seeds of”, “control plants. VIOTR: Viola tricolor” for “control plants.”

| Structure (SMILES) | pest or weed control at 80 g/ha [1] | Pre-emergence herbicidal activity against ABUTH in % (Abutilon theophrasti) | pest or weed control at 80 g/ha (Echinochloa crus-galli) | pest or weed control at 80 g/ha (Pharbitis purpurea) | pest or weed control at 80 g/ha (Hordeum murinum) | pest or weed control at 80 g/ha (Lolium rigidum) | Pre-emergence herbicidal activity against VIOTR in % (Viola tricolor) | Pre-emergence herbicidal activity against PHBPU in % (Pharbitis purpurea) | Pre-emergence herbicidal activity against HORMU in % (Hordeum murinum) | Pre-emergence herbicidal activity against LOLRI in % (Lolium rigidum) | Pre-emergence herbicidal activity against ECHCG in % (Echinochloa crus-galli) |
| --- | --- | --- | --- | --- | --- | --- | --- | --- | --- | --- | --- |
| COC(=O)[C@H]1C[C@@H](NC(=O)[C@@]2(C)CC(c3cc(F)cc(F)c3)=NO2)CO1 (mixture of isomers) [I-09, methyl cis-4-[[(5R)-3-(3,5-difluorophenyl)-5-methyl-4H-isoxazole-5-carbonyl]amino]tetrahydrofuran-2-carboxylate] | 80 to 100% | 100% | 90% | – | – | – | – | – | – | – | – |
| C=C[C@]1(C(=O)N[C@H]2CO[C@@H](C(=O)OC)C2)CC(c2cc(F)cc(F)c2)=NO1 (mixture of isomers) [I-10, methyl cis-4-[[(5S)-3-(3,5-difluorophenyl)-5-vinyl-4H-isoxazole-5-carbonyl]amino]tetrahydrofuran-2-carboxylate] | 80 to 100% | 100% | 100% | 80% | 100% | 100% | 100% | – | – | – | – |
| C=C[C@]1(C(=O)N[C@H]2CO[C@@H](C(=O)OC(C)C)C2)CC(c2cc(F)cc(F)c2)=NO1 (mixture of isomers) [I-36, isopropyl cis-4-[[(5S)-3-(3,5-difluorophenyl)-5-vinyl-4H-isoxazole-5-carbonyl]amino]tetrahydrofuran-2-carboxylate] | 80 to 100% | – | 100% | 90% | 90% | 100% | 100% | – | – | – | – |
| C=C[C@]1(C(=O)N[C@H]2CO[C@@H](C(=O)OCc3ccccc3)C2)CC(c2cc(F)cc(F)c2)=NO1 (mixture of isomers) [I-37, benzyl cis-4-[[(5S)-3-(3,5-difluorophenyl)-5-vinyl-4H-isoxazole-5-carbonyl]amino]tetrahydrofuran-2-carboxylate] | 80 to 100% | – | 90% | 90% | 100% | 100% | 100% | – | – | – | – |
| CC1(C(=O)NC2COC(C(=O)OCc3ccccc3)C2)CC(c2cc(F)cc(F)c2)=NO1 (mixture of isomers) [I-45] | – | – | – | – | – | – | 100% | 90% | 100% | 100% | 100% |
| COC(=O)C1CC(NC(=O)C2(C)CC(c3cc(F)cc(F)c3)=NO2)CO1 (mixture of isomers) [I-48] | – | – | – | – | – | – | 100% | 90% | 100% | 100% | 90% |
| COC(=O)[C@H]1C[C@@H](NC(=O)C2(C)CC(c3cc(C)cc(Br)c3)=NO2)CO1 (relative stereo) [I-04, methyl cis-4-[[3-(3-bromo-5-methylphenyl)-5-methyl-4H-isoxazole-5-carbonyl]amino]tetrahydrofuran-2-carboxylate] | – | 100% | – | – | – | – | – | – | – | – | – |
| COC(=O)[C@H]1C[C@@H](NC(=O)C2(C(F)(F)F)CC(c3cc(F)cc(F)c3)=NO2)CO1 (relative stereo) [I-06, methyl cis-4-[[3-(3,5-difluorophenyl)-5-(trifluoromethyl)-4H-isoxazole-5-carbonyl]amino]tetrahydrofuran-2-carboxylate] | 80 to 100% | 100% | 80% | 80% | – | – | 80% | – | – | – | – |
| COC(=O)[C@H]1C[C@@H](NC(=O)C2(OC)CC(c3cc(C)cc(Br)c3)=NO2)CO1 (relative stereo) [I-08, methyl cis-4-[[3-(3-bromo-5-methylphenyl)-5-methoxy-4H-isoxazole-5-carbonyl]amino]tetrahydrofuran-2-carboxylate] | – | 100% | – | – | – | – | – | – | – | – | – |
| COC(=O)[C@H]1C[C@@H](NC(=O)C2(OC)CC(c3ccccc3)=NO2)CO1 (relative stereo) [I-14, methyl cis-4-[(5-methoxy-3-phenyl-4H-isoxazole-5-carbonyl)amino]tetrahydrofuran-2-carboxylate] | – | 100% | – | – | – | – | – | – | – | – | – |
| C=C[C@]1(C(=O)N[C@H]2CO[C@@H](C(=O)OC)C2)CC(c2cc(F)cc(F)c2)=NO1 (single isomer, unassigned) [I-11] | 80 to 100% | 80% | – | 100% | – | – | 100% | – | 100% | 100% | 100% |
| CC(C)OC(=O)C1CC(NC(=O)C2(C)CC(c3cc(F)cc(F)c3)=NO2)CO1 (stereo not drawn) [I-44] | – | – | – | – | – | – | 80% | 80% | 100% | 100% | 90% |
| COC(=O)C1CC(NC(=O)C2(C(C)(F)F)CC(c3cc(F)cc(F)c3)=NO2)CO1 (stereo not drawn) [I-49] | – | – | – | – | – | – | 100% | 90% | 100% | 100% | 100% |
